Data published in ChEMBL document CHEMBL1201862, “PubChem BioAssay data set” (2004).
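96-well plates; 48 h exposure; 5 concentrations. Endpoints by linear interpolation between flanking doses. Not reached: highest tested concentration assigned. The concentration for 50% growth inhibition is given as GI50.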 Activity calls are given as the source filed them. No stated cut-off is given here; in the data, active = GI50 up to about 1.1 µM and inactive = higher.

How the values were obtained:
Test in all cases: DTP human tumour cell line panel, 48 h
786-0 = test system: 786-0
A498 = test system: A498
BT-549 = test system: BT-549
EKVX = test system: EKVX
HCC 2998 = test system: HCC 2998
HOP-92 = test system: HOP-92
HT-29 = test system: HT-29
Hs-578T = test system: Hs-578T
IGROV-1 = test system: IGROV-1
NCI-H460 = test system: NCI-H460
NCI/ADR-RES = test system: NCI/ADR-RES
PC-3 = test system: PC-3
SK-MEL-2 = test system: SK-MEL-2
SK-OV-3 = test system: SK-OV-3
CCRF-CEM = test system: CCRF-CEM
SK-MEL-28 = test system: SK-MEL-28
SR = test system: SR
UACC-62 = test system: UACC-62
SF-539 = test system: SF-539

Row | SMILES | GI50 (786-0) | GI50 (A498) | GI50 (BT-549) | GI50 (EKVX) | GI50 (HCC 2998) | GI50 (HOP-92) | GI50 (HT-29) | GI50 (Hs-578T) | GI50 (IGROV-1) | GI50 (NCI-H460) | GI50 (NCI/ADR-RES) | GI50 (PC-3) | GI50 (SK-MEL-2) | GI50 (SK-OV-3) | GI50 (CCRF-CEM) | GI50 (SK-MEL-28) | GI50 (SR) | GI50 (UACC-62) | GI50 (SF-539)
1 | O=c1ccn(C2OC(CN(O)CCC3C(O)C(CO)OC3n3ccc(=O)[nH]c3=O)C(O)C2O)c(=O)[nH]1 (stereo not drawn) | > 100 µM (inactive) | > 100 µM (inactive) | > 100 µM (inactive) | > 100 µM (inactive) | > 100 µM (inactive) | > 100 µM (inactive) | > 100 µM (inactive) | > 100 µM (inactive) | > 100 µM (inactive) | > 100 µM (inactive) | > 100 µM (inactive) | > 100 µM (inactive) | > 100 µM (inactive) | > 100 µM (inactive) |  |  |  |  | 
2 | CN(C)CCN(C)P12(Oc3ccccc3O1)Oc1c(Cl)c(Cl)c(Cl)c(Cl)c1O2 | 54.6 µM (inactive) | 60.5 µM (inactive) | 56.4 µM (inactive) | 99.8 µM (inactive) | > 100 µM (inactive) | 22.1 µM (inactive) | 43.8 µM (inactive) |  | 45.4 µM (inactive) | 37.2 µM (inactive) | 35.8 µM (inactive) | 33.7 µM (inactive) |  | > 100 µM (inactive) | 29 µM (inactive) | > 100 µM (inactive) | 35.2 µM (inactive) | 33.3 µM (inactive) | 
3 | Cc1cc2c(c(C(=O)NCC(=O)N[C@@H](C)C(=O)OCc3ccccc3)c1)Oc1c(cc(C)cc1C(=O)NCC(=O)N[C@@H](C)C(=O)OCc1ccccc1)S2 | > 100 µM (inactive) | > 100 µM (inactive) | > 100 µM (inactive) | > 100 µM (inactive) | 34.7 µM (inactive) |  | > 100 µM (inactive) | 26.2 µM (inactive) | 99.1 µM (inactive) | > 100 µM (inactive) | > 100 µM (inactive) | > 100 µM (inactive) | 24.9 µM (inactive) | > 100 µM (inactive) | > 100 µM (inactive) |  | 17.8 µM (inactive) | 30.8 µM (inactive) | 
4 | Oc1ccc2ccccc2c1/N=N/c1ccc(/N=N/c2ccccc2)cc1 | > 100 µM (inactive) | > 100 µM (inactive) | > 100 µM (inactive) | > 100 µM (inactive) |  |  | > 100 µM (inactive) | > 100 µM (inactive) | > 100 µM (inactive) |  | > 100 µM (inactive) | > 100 µM (inactive) | > 100 µM (inactive) | > 100 µM (inactive) | > 100 µM (inactive) | > 100 µM (inactive) | 23.6 µM (inactive) | 75.7 µM (inactive) | 
5 | COc1ccc2c(c1)C/C(=C\c1ccc(O)c(OC)c1)C2=O | > 100 µM (inactive) | > 100 µM (inactive) | > 100 µM (inactive) | > 100 µM (inactive) | > 100 µM (inactive) |  | > 100 µM (inactive) | > 100 µM (inactive) | > 10 µM (inactive) | > 100 µM (inactive) | > 100 µM (inactive) | > 100 µM (inactive) |  | > 100 µM (inactive) |  | > 100 µM (inactive) | > 100 µM (inactive) | > 100 µM (inactive) | > 100 µM (inactive)
6 | COc1cc2c(cc1C)NC(=O)/C2=C/c1c(Cl)n(C)c2ccccc12 | 12.7 µM (inactive) | 5.86 µM (inactive) | 4.57 µM (inactive) | 6.68 µM (inactive) | 5.18 µM (inactive) |  | 6.08 µM (inactive) | 3.42 µM (inactive) | 3.81 µM (inactive) | 6.71 µM (inactive) | 3.61 µM (inactive) | 5.38 µM (inactive) | 9.66 µM (inactive) | 12.4 µM (inactive) | 1.9 µM (inactive) | 13 µM (inactive) |  | 5.73 µM (inactive) | 12.1 µM (inactive)
7 | CC12C(=O)CC(CC1=O)C2(C)C | > 100 µM (inactive) |  | > 100 µM (inactive) | > 100 µM (inactive) |  | > 100 µM (inactive) | > 100 µM (inactive) | > 100 µM (inactive) | > 100 µM (inactive) | > 100 µM (inactive) | > 100 µM (inactive) | > 100 µM (inactive) | > 100 µM (inactive) | > 100 µM (inactive) | > 100 µM (inactive) | > 100 µM (inactive) |  | > 100 µM (inactive) | 
8 | CC(=N/NC(=S)N1CCCCCC1)/C(C)=N\NC(=S)N1CCCCCC1 | 4.54 µM (inactive) | 1.78 µM (inactive) | 5.27 µM (inactive) | 3.85 µM (inactive) | 3.12 µM (inactive) | 1.32 µM (inactive) | 2.63 µM (inactive) | 3.87 µM (inactive) | 3.84 µM (inactive) | 4.38 µM (inactive) | 5.25 µM (inactive) | 5.86 µM (inactive) | 1.97 µM (inactive) | 3.88 µM (inactive) |  | 1.88 µM (inactive) |  | 4.29 µM (inactive) | 20.7 µM (inactive)
9 | Cc1ccccc1C(=O)C#Cc1cn(C2CC(O)C(CO)O2)c(=O)[nH]c1=O (stereo not drawn) | > 100 µM (inactive) |  | > 100 µM (inactive) | > 100 µM (inactive) | > 100 µM (inactive) | 74.1 µM (inactive) | > 100 µM (inactive) | > 100 µM (inactive) | > 100 µM (inactive) | > 100 µM (inactive) | > 100 µM (inactive) | > 100 µM (inactive) | > 100 µM (inactive) | > 100 µM (inactive) | 20.5 µM (inactive) | > 100 µM (inactive) | 27.9 µM (inactive) | > 100 µM (inactive) | > 100 µM (inactive)
10 | CC(C)CC(NC(=O)C(COc1ccc([N+](=O)[O-])cc1)Cc1ccccc1)C(=O)Nc1ccccc1 (stereo not drawn) | 7.08 µM (inactive) | 24 µM (inactive) | 10.9 µM (inactive) | 23.6 µM (inactive) | 13.1 µM (inactive) | 13.3 µM (inactive) |  |  | 7.8 µM (inactive) | 4.29 µM (inactive) | 12.7 µM (inactive) | 38.7 µM (inactive) | 21.7 µM (inactive) | 13.8 µM (inactive) | 7.26 µM (inactive) |  | 41.5 µM (inactive) | 11.1 µM (inactive) | 6.68 µM (inactive)
11 | CC(C)c1cc(C(C)C)c(Cl)c(Cl)c1O.CC(C)c1cc(Cl)c(O)c(C(C)C)c1Cl | 34.5 µM (inactive) |  | 19.9 µM (inactive) | 20.5 µM (inactive) | 28.8 µM (inactive) | 10.5 µM (inactive) | 24 µM (inactive) | 16.6 µM (inactive) | 21.6 µM (inactive) | 30 µM (inactive) | 32.8 µM (inactive) | 19.5 µM (inactive) | 18.5 µM (inactive) |  | 37.1 µM (inactive) | 24.1 µM (inactive) | 9.25 µM (inactive) | 19.6 µM (inactive) | 20 µM (inactive)
12 | COC1CC(OC2C(C)OC(OC3C(C)OC(OC4C(O)CC(O[C@H]5CC[C@@]6(C)C(=CC[C@]7(O)[C@@H]6C[C@@H](OC(C)=O)[C@@]6(C)[C@]7(O)CC[C@@]6(O)C(C)=O)C5)OC4C)CC3OC)CC2OC)OC(C)C1O (stereo partly drawn) | > 12.5 µM (inactive) |  | > 12.5 µM (inactive) | > 12.5 µM (inactive) | > 12.5 µM (inactive) | > 12.5 µM (inactive) | > 12.5 µM (inactive) | > 12.5 µM (inactive) | > 12.5 µM (inactive) |  | > 12.5 µM (inactive) | > 12.5 µM (inactive) | > 12.5 µM (inactive) | > 12.5 µM (inactive) | > 12.5 µM (inactive) |  | > 12.5 µM (inactive) | > 12.5 µM (inactive) | > 12.5 µM (inactive)
13 | CC1=NCCN=C(C)C1/N=N/c1ccc2[nH]c(C)nc2c1 | 11.7 µM (inactive) | 0.912 µM (active) | 9.08 µM (inactive) | 15.8 µM (inactive) | 14 µM (inactive) | 4.7 µM (inactive) | 12.6 µM (inactive) | 23.3 µM (inactive) | 25.9 µM (inactive) | 18.2 µM (inactive) | 12 µM (inactive) | 6.03 µM (inactive) | 19.2 µM (inactive) | 19.1 µM (inactive) | 4.97 µM (inactive) | 10.6 µM (inactive) |  | 14.2 µM (inactive) | 20.5 µM (inactive)
14 | Clc1cccc(-c2sc(-c3cccs3)cc2Cc2cccs2)c1 | > 10 µM (inactive) |  | > 10 µM (inactive) | > 10 µM (inactive) | > 10 µM (inactive) | > 10 µM (inactive) | > 10 µM (inactive) | > 10 µM (inactive) | > 10 µM (inactive) | > 10 µM (inactive) | > 10 µM (inactive) | > 10 µM (inactive) |  | > 10 µM (inactive) | > 10 µM (inactive) | > 10 µM (inactive) | > 10 µM (inactive) | > 10 µM (inactive) | > 10 µM (inactive)
15 | N#CCCN(CCC#N)c1ccc(/C=C2\N=C(c3ccccc3)N(c3ccccc3)C2=O)cc1 | 17 µM (inactive) | > 100 µM (inactive) | 57.1 µM (inactive) | > 100 µM (inactive) |  | 5.19 µM (inactive) | 8.97 µM (inactive) | 19.3 µM (inactive) | 25.8 µM (inactive) | 2.1 µM (inactive) | > 100 µM (inactive) | 17 µM (inactive) | > 100 µM (inactive) | > 100 µM (inactive) | 2.26 µM (inactive) | > 100 µM (inactive) |  | > 100 µM (inactive) | 6.11 µM (inactive)
16 | O=S1(=O)OCc2ccccc21 | 60.1 µM (inactive) | 37.5 µM (inactive) | > 100 µM (inactive) | > 100 µM (inactive) | > 100 µM (inactive) | > 100 µM (inactive) | > 100 µM (inactive) | > 100 µM (inactive) | > 100 µM (inactive) | 34.4 µM (inactive) | > 100 µM (inactive) | > 100 µM (inactive) | > 100 µM (inactive) | > 100 µM (inactive) | > 100 µM (inactive) | > 100 µM (inactive) |  | 80.2 µM (inactive) | 25.2 µM (inactive)
